Converted amounts (≈) assume the structure as drawn. Marks after values point to notes of the source that are not given here.
These compounds were tested on Candida albicans (ATCC no. 10231) (assay: MIC determination by broth microdilution (NCCLS), visual scoring). Conditions: Candida albicans, ATCC10231, read-out: MIC80 C. albicans.
Type: cell-based
Experimental: The antifungal activity of the 2,4,6-pyrimidinetrione analogs shown in Schemes 2-6 were evaluated in vitro using Candida albicans (ATCC no. 10231) and Candida glabrata (ATCC no 48435). All assays were done in accordance with NCCLS reference documents^29.
Master stock concentrations of all tested compounds were prepared to ensure that the maximum final concentration of DMSO was 1% or less. Subsequent 2-fold serial dilutions were made using sterile water to a final concentration of 1280-5.00 μg/ml. A final 10-fold dilution of each drug was made by aliquotting 0.1 mL of each drug dilution into 0.9 mL of fungal suspension in RPMI 1640 media with 10 mM HEPES buffer added (see methodology below), giving final concentrations tested in the range of 128-0.5 μg/ml.
Antifungal susceptibility studies and minimal inhibitory concentrations (MIC) values for Candida albicans (ATCC no. 10231) and Candida glabrata (ATCC no. 48435) were determined by the broth microdilution technique in accordance with NCCLS reference documents. Microdilution panels ranged from 0.5 to 128 μg/mL. All organisms were subcultured on Sabouraud agar and passaged to ensure purity and viability. The initiating inocula were prepared by picking 5-7 isolated colonies ˜1 mm in diameter from freshly prepared YM agar plates. Colonies were resuspended in sterile water, vortexed and the cell density was adjusted spectrophotometrically to the transmittance of a 0.5 McFarland standard at a wavelength of 530 nm, to yield a stock suspension of 1×10^6-5×10^6 cells/mL. The stock was allowed to hydrate for 30 minutes at room temperature. A working suspension was then made by diluting the stock 1:50 with RPMI 1640 media containing HEPES buffer. The working suspension was used for all assays. The plates were incubated at 35° C. for 48-72 hours in a humid atmosphere. Growth was scored visually. MIC values are defined as the lowest concentration of agent that prevents any discernible growth, ˜80% reduction of growth, as compared with drug-free control wells. All assays were run in parallel using either fluconazole or amphotericin B at the NCCLS recommended concentrations^29 as a drug control (Sigma-Aldrich).

Row | SMILES | MIC80 [µg/mL]
1 | CN/N=C/C1C(=O)N(C)C(=O)N(C)C1=O [BA122, 1,3-dimethyl-5-[(E)-(2-methylhydrazinylidene)methyl]pyrimidine-2,4,6-trione] | 62 (≈ 292 µM)
2 | CN/N=C(\C)C1C(=O)N(C)C(=O)N(C)C1=O [BA123, 1,3-dimethyl-5-[(1E)-1-(2-methylhydrazinylidene)ethyl]pyrimidine-2,4,6(1H,3H,5H)-trione] | > 125
3 | C/C(=N\N)C1C(=O)N(C)C(=O)N(C)C1=O [BA119, 5-[(1E)-1-hydrazinylideneethyl]-1,3-dimethylpyrimidine-2,4,6-trione] | > 125
4 | CN/N=C(\C)C1C(=O)NC(=O)NC1=O [BA121, 5-[(1E)-1-(2-methylhydrazinylidene)ethyl]pyrimidine-2,4,6-trione] | > 125
5 | N/N=C/C1C(=O)NC(=O)NC1=O [BA116, 5-[(E)-hydrazinylidenemethyl]pyrimidine-2,4,6-trione] | 125 (≈ 735 µM)

Same assay, conditions: Table 2, 5-Arylidene-2,4,6-pyrimidinetriones

Row | SMILES | MIC80 C. albicans [µg/mL]
6 | O=C1NC(=O)C(=CC=Cc2ccccc2)C(=O)N1 [BA42] | 62 (≈ 256 µM)

Same assay, conditions: Table 5, Schiff Bases of 5-acylpyrimidinetriones

Row | SMILES | MIC80 C. albicans
7 | O=C1NC(=O)C(/C=N/C2N=NN=N2)C(=O)N1 [BA111] | — (none of the 5-acyl-2,4,6-pyrimidinetriones, 5-alkylated pyrimidinetriones or the 5,5-dialkylated pyrimidinetriones showed antifungal activity through 125 μg/mL)
8 | O=C1NC(=O)C(/C=N/n2cnnc2)C(=O)N1 [BA109] | — (none of the 5-acyl-2,4,6-pyrimidinetriones, 5-alkylated pyrimidinetriones or the 5,5-dialkylated pyrimidinetriones showed antifungal activity through 125 μg/mL)
9 | COc1ccc(N=C(C)C2C(=O)N(C)C(=O)N(C)C2=O)cc1 [BA99] | — (none of the 5-acyl-2,4,6-pyrimidinetriones, 5-alkylated pyrimidinetriones or the 5,5-dialkylated pyrimidinetriones showed antifungal activity through 125 μg/mL)
10 | O=C1NC(=O)C(/C=N/c2nnc[nH]2)C(=O)N1 [BA107] | — (none of the 5-acyl-2,4,6-pyrimidinetriones, 5-alkylated pyrimidinetriones or the 5,5-dialkylated pyrimidinetriones showed antifungal activity through 125 μg/mL)
11 | O=C1NC(=O)C(C=Nc2ccc([N+](=O)[O-])cc2)C(=O)N1 [BA101] | — (none of the 5-acyl-2,4,6-pyrimidinetriones, 5-alkylated pyrimidinetriones or the 5,5-dialkylated pyrimidinetriones showed antifungal activity through 125 μg/mL)
12 | CN1C(=O)C(C=Nc2ccccn2)C(=O)N(C)C1=O [BA104] | — (none of the 5-acyl-2,4,6-pyrimidinetriones, 5-alkylated pyrimidinetriones or the 5,5-dialkylated pyrimidinetriones showed antifungal activity through 125 μg/mL)
13 | CN1C(=O)C(C=Nc2ccc(-c3ccccc3)cc2)C(=O)N(C)C1=O [BA106] | — (none of the 5-acyl-2,4,6-pyrimidinetriones, 5-alkylated pyrimidinetriones or the 5,5-dialkylated pyrimidinetriones showed antifungal activity through 125 μg/mL)
14 | COc1ccc(N=C(C)C2C(=O)NC(=O)NC2=O)cc1 [BA100] | — (none of the 5-acyl-2,4,6-pyrimidinetriones, 5-alkylated pyrimidinetriones or the 5,5-dialkylated pyrimidinetriones showed antifungal activity through 125 μg/mL)
15 | CN1C(=O)C(/C=N/n2cnnc2)C(=O)N(C)C1=O [BA110] | — (none of the 5-acyl-2,4,6-pyrimidinetriones, 5-alkylated pyrimidinetriones or the 5,5-dialkylated pyrimidinetriones showed antifungal activity through 125 μg/mL)
16 | CN1C(=O)C(/C=N/c2nnc[nH]2)C(=O)N(C)C1=O [BA108] | — (none of the 5-acyl-2,4,6-pyrimidinetriones, 5-alkylated pyrimidinetriones or the 5,5-dialkylated pyrimidinetriones showed antifungal activity through 125 μg/mL)
17 | CN1C(=O)C(C=Nc2ccc([N+](=O)[O-])cc2)C(=O)N(C)C1=O [BA102] | — (none of the 5-acyl-2,4,6-pyrimidinetriones, 5-alkylated pyrimidinetriones or the 5,5-dialkylated pyrimidinetriones showed antifungal activity through 125 μg/mL)
18 | COc1ccc(N=CC2C(=O)NC(=O)NC2=O)cc1 [BA97] | — (none of the 5-acyl-2,4,6-pyrimidinetriones, 5-alkylated pyrimidinetriones or the 5,5-dialkylated pyrimidinetriones showed antifungal activity through 125 μg/mL)
19 | O=C1NC(=O)C(C=Nc2ccccn2)C(=O)N1 [BA103] | — (none of the 5-acyl-2,4,6-pyrimidinetriones, 5-alkylated pyrimidinetriones or the 5,5-dialkylated pyrimidinetriones showed antifungal activity through 125 μg/mL)

Same assay, conditions: Table 8, N-Acylhydrazones of 5-Acylpyrimidinetriones

Row | SMILES | MIC80 C. albicans
20 | CN1C(=O)C(/C=N/NC(=O)c2ccccc2)C(=O)N(C)C1=O [BA125] | — (none of the 5-acyl-2,4,6-pyrimidinetriones, 5-alkylated pyrimidinetriones or the 5,5-dialkylated pyrimidinetriones showed antifungal activity through 125 μg/mL)
21 | CC(=NNC(=O)c1ccc([N+](=O)[O-])cc1)C1C(=O)NC(=O)NC1=O [BA130] | — (none of the 5-acyl-2,4,6-pyrimidinetriones, 5-alkylated pyrimidinetriones or the 5,5-dialkylated pyrimidinetriones showed antifungal activity through 125 μg/mL)
22 | COc1ccc(C(=O)NN=C(C)C2C(=O)N(C)C(=O)N(C)C2=O)cc1 [BA135] | — (none of the 5-acyl-2,4,6-pyrimidinetriones, 5-alkylated pyrimidinetriones or the 5,5-dialkylated pyrimidinetriones showed antifungal activity through 125 μg/mL)
23 | COc1ccc(C(=O)N/N=C/C2C(=O)NC(=O)NC2=O)cc1 [BA132] | — (none of the 5-acyl-2,4,6-pyrimidinetriones, 5-alkylated pyrimidinetriones or the 5,5-dialkylated pyrimidinetriones showed antifungal activity through 125 μg/mL)
24 | CC(=NNC(=O)c1ccccc1)C1C(=O)N(C)C(=O)N(C)C1=O [BA127] | — (none of the 5-acyl-2,4,6-pyrimidinetriones, 5-alkylated pyrimidinetriones or the 5,5-dialkylated pyrimidinetriones showed antifungal activity through 125 μg/mL)
25 | C/C(=N\NC(=O)c1ccccc1)C1C(=O)NC(=O)NC1=O [BA126] | — (none of the 5-acyl-2,4,6-pyrimidinetriones, 5-alkylated pyrimidinetriones or the 5,5-dialkylated pyrimidinetriones showed antifungal activity through 125 μg/mL)
26 | COc1ccc(C(=O)NN=C(C)C2C(=O)NC(=O)NC2=O)cc1 [BA134] | — (none of the 5-acyl-2,4,6-pyrimidinetriones, 5-alkylated pyrimidinetriones or the 5,5-dialkylated pyrimidinetriones showed antifungal activity through 125 μg/mL)

Same assay, conditions: Table 8, values marked * (no footnote in this table)

Row | SMILES | MIC80 C. albicans
27 | COc1ccc(C(=O)N/N=C/C2C(=O)N(C)C(=O)N(C)C2=O)cc1 [BA133] | 62* μg/mL
28 | O=C1NC(=O)C(/C=N/NC(=O)c2ccc([N+](=O)[O-])cc2)C(=O)N1 [BA128] | 62* μg/mL
29 | CN1C(=O)C(/C=N/NC(=O)c2ccc([N+](=O)[O-])cc2)C(=O)N(C)C1=O [BA129] | 62* μg/mL

Same assay, conditions: Table 9, Benzenesuifonohydrazones of 5-Acylpyrimidinetrione

Row | SMILES | MIC80 C. albicans
30 | Cc1ccc(S(=O)(=O)N/N=C/C2C(=O)N(C)C(=O)N(C)C2=O)cc1 [BA115] | — (none of the 5-acyl-2,4,6-pyrimidinetriones, 5-alkylated pyrimidinetriones or the 5,5-dialkylated pyrimidinetriones showed antifungal activity through 125 μg/mL)
31 | C/C(=N\NS(=O)(=O)c1ccccc1)C1C(=O)NC(=O)NC1=O [BA138] | — (none of the 5-acyl-2,4,6-pyrimidinetriones, 5-alkylated pyrimidinetriones or the 5,5-dialkylated pyrimidinetriones showed antifungal activity through 125 μg/mL)
32 | O=C1NC(=O)C(C=NNS(=O)(=O)c2ccccc2)C(=O)N1 [BA136] | — (none of the 5-acyl-2,4,6-pyrimidinetriones, 5-alkylated pyrimidinetriones or the 5,5-dialkylated pyrimidinetriones showed antifungal activity through 125 μg/mL)
33 | C/C(=N\NS(=O)(=O)c1ccccc1)C1C(=O)N(C)C(=O)N(C)C1=O [BA139] | — (none of the 5-acyl-2,4,6-pyrimidinetriones, 5-alkylated pyrimidinetriones or the 5,5-dialkylated pyrimidinetriones showed antifungal activity through 125 μg/mL)
34 | CN1C(=O)C(C=NNS(=O)(=O)c2ccccc2)C(=O)N(C)C1=O [BA137] | — (none of the 5-acyl-2,4,6-pyrimidinetriones, 5-alkylated pyrimidinetriones or the 5,5-dialkylated pyrimidinetriones showed antifungal activity through 125 μg/mL)

Source: patent US20160235752A1, “COMPOSITIONS, METHODS OF USE, AND METHODS OF TREATMENT” (THE UNIVERSITY OF NEW ORLEANS, priority 2013, published 2016)
